Experimental data reported in patent US20210315824A1, “PHARMACEUTICAL FORMULATIONS COMPRISING NITROCATECHOL DERIVATIVES AND METHODS OF MAKING THE SAME” (BIAL - PORTELA & CA, S.A., priority 2009, published 2021).

Assay: Bulk and tapped density of granules / API
Assay type: physicochemical
Settings: API alone, prior to granulation and/or formulation
Source text: It is within the ability of one of skill in the art to determine the bulk density of a compound or composition using methods generally accepted in the art. However, suitable methods include, for example, the European Pharmacopeia edition 6, Test 2.9.15 “apparent volume,” pages 285-286, EDQM, 2007, and USP 31, vol. 1, test <616> page 231-232, The United States Pharmacopeia Convention, 2008. Another example of a suitable method is described below:
Apparatus: • settling apparatus capable of producing in 1 minute 250±15 taps from a height of 3±0.2 mm. The support for the graduated cylinder with its holder, has a mass of 450±5 g • a 250 ml graduated cylinder (2 ml intervals) with a mass of 220±40 g
Method: Into a dry cylinder, introduce without compacting, 100.0 g (m g) of the test substance. […] Read the unsettled apparent volume (V0) to the nearest milliliter. Carry out 10, 500 and 1250 taps and read the corresponding volumes V10, V500, V1250, to the nearest milliliter. […]
Alternatively, if it is not possible to select 100.0 g, select a test sample of any mass but with a volume between 50 ml and 250 ml, measure its apparent volume, V0 as described above, and weigh the sample and specify the mass in the expression of results. Bulk/apparent density may then be determined in g/ml using the following formula: […]
Tapped apparent density may then be determined in g/ml using the following formula: […]

Row | bulk density | Structure (SMILES)
1 | less than 0.1 g/ml | Cc1c(Cl)c(C)[n+]([O-])c(Cl)c1-c1noc(-c2cc(O)c(O)c([N+](=O)[O-])c2)n1 [2,5-dichloro-3-(5-(3,4-dihydroxy-5-nitrophenyl)-1,2,4-oxadiazol-3-yl)-4,6-dimethylpyridine 1-oxide]
2 | around 0.2 g/ml | Cc1nc(Cl)c(-c2noc(-c3cc(O)c(O)c([N+](=O)[O-])c3)n2)c(C)c1Cl [5-[3-(2,5-dichloro-4,6-dimethylpyridin-3-yl)-[1,2,4]oxadiazol-5-yl]-3-nitrobenzene-1,2-diol]
